Consider 43 compounds from patent publication US20130261178A1, “PHENOXYPROPANOL DERIVATIVES AND THEIR USE IN TREATING CARDIAC AND CARDIOVASCULAR DISEASES” (priority 2010, published 2013).

The target in one series is T1, human beta2-adrenoceptor (Homo sapiens, UniProt P07550).
T1 construct: expressed in transfected cells; host or cells: CHO cells
In words: 3H-CGP12177 whole-cell binding, CHO cells expressing human beta2-adrenoceptor. The note with it: 3H-CGP 12177 whole cell binding, mean ± s.e.mean; for Kd: log KD, read-out: Beta 2 Log KD (converted). From the text: (§1) The selectivity of a ligand is given by the ratio of beta-1 to beta-2 KD.

The target of the next series is beta1-adrenoceptor (Homo sapiens, UniProt P08588). In words: 3H-CGP12177 whole-cell binding, CHO cells expressing human beta1-adrenoceptor. The arrangement: expressed in transfected cells; host or cells: CHO cells. The settings on record: 3H-CGP 12177 whole cell binding, mean ± s.e.mean; for Kd: log KD, read-out: Beta 1 Log KD (converted).
Sequence of beta1-adrenoceptor (P08588 whole entry): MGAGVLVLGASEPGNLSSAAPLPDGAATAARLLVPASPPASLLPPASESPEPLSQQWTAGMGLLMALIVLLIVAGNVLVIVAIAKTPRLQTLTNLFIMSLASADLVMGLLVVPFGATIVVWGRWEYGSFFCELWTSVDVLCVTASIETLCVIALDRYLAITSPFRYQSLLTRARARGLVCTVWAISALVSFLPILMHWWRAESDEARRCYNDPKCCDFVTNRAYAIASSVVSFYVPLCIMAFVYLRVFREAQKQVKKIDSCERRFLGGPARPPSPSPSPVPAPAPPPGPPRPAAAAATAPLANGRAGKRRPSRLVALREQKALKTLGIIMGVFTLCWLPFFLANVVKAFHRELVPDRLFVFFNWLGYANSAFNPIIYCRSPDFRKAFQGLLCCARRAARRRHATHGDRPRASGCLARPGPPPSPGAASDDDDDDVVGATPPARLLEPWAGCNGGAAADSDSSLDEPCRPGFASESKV
Description: as §1

SMILES strings stand for the structures. Structures can show the parent of a compound that is named as a salt.

T1 sequence (P07550 whole entry): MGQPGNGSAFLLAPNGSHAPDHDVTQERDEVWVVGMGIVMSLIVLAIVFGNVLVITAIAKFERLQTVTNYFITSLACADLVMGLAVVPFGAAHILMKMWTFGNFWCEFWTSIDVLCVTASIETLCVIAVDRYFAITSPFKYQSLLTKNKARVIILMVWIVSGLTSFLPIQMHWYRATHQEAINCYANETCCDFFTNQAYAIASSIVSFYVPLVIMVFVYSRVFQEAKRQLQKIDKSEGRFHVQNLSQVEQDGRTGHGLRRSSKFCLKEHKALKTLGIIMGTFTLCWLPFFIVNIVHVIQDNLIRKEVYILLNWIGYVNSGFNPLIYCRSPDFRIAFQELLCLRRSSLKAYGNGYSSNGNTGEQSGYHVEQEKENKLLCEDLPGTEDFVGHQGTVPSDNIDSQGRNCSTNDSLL

Broadly, the Kd is the equilibrium constant for the complex coming apart. As to `COc1cc(C(=O)NCCNCC(O)COc2ccc(OCCOC3CCCC3)cc2)ccc1O` (stereo not drawn) [62f], the dissociation constant Kd was 1.41 µM at human beta2-adrenoceptor and 0.0049 µM at beta1-adrenoceptor.
For `COc1ccc(CC(=O)NCCNCC(O)COc2ccc(OCCOC3CCCC3)cc2)cc1` (stereo not drawn) [62t], the dissociation constant Kd on human beta2-adrenoceptor was 0.0912 µM; on beta1-adrenoceptor, 0.00977 µM.
The corresponding values for `Nc1cccc(NC(=O)NCCNCC(O)COc2ccc(OCCOC3CCCC3)cc2)c1` (stereo not drawn) [60b] are 4.17 µM and 0.02 µM.
The corresponding values for `NC(=O)c1cc(OCCNCC(O)COc2ccc(OCCOC3CCCC3)cc2)ccc1O` (stereo not drawn) [compound 72, 5-(2-(3-(4-(2-(Cyclopentyloxy)ethoxy)phenoxy)-2-hydroxypropylamino)ethoxy)-2-hydroxybenzamide] are 0.0251 µM and 0.000776 µM.
Broadly, the melting point is the temperature of the solid-liquid transition. Take `O=C(NCCNCC(O)COc1ccc(OCCOC2CCCC2)cc1)c1ccccc1` (stereo not drawn) [62a]: the melting point is 149 to 152 °C. In addition, the dissociation constant (Kd) on human beta2-adrenoceptor was 1.15 µM. In addition, the equilibrium dissociation constant (Kd) at beta1-adrenoceptor is 0.0692 µM.
As to `Oc1ccc(OCCNCC(O)COc2ccc(OCCOC3CCCC3)cc2)cc1` (stereo not drawn) (hydrate or solvate) [65e], the melting point lay within 101 to 103 °C.
Turning to `OC(CNCCOc1ccccc1-c1ccccc1)COc1ccc(OCCOC2CCCC2)cc1` (stereo not drawn) [65c], the Kd at human beta2-adrenoceptor is 0.741 µM; on beta1-adrenoceptor, 0.107 µM.
With `COC(=O)c1ccc(NC(=O)NCCNCC(O)COc2ccc(OCCOC3CCCC3)cc2)cc1` (stereo not drawn) [47z, Methyl 4-(3-(2-(3-(4-(2-(cyclopentyloxy)ethoxy)phenoxy)-2-hydroxypropylamino)ethyl)ureido)benzoate], the Kd at human beta2-adrenoceptor was 2.04 µM; on beta1-adrenoceptor it was 0.0437 µM.
On to `COc1ccc(NC(=O)NCCNCC(O)COc2ccc(OCCOC3CCCC3)cc2)cc1Cl` (stereo not drawn) [54b, 1-(3-Chloro-4-methoxyphenyl)-3-(2-(3-(4-(2-(cyclopentyloxy)ethoxy)phenoxy)-2-hydroxypropylamino)ethyl)urea], for which the Kd at human beta2-adrenoceptor is 1.51 µM; at beta1-adrenoceptor, 0.0195 µM.
Regarding `CCCOCCOc1ccc(OCC(O)CNCCNC(=O)Nc2cccc(Cl)c2)cc1` (stereo not drawn) [46m, 1-(2-(3-(4-(2-(Propyloxy)ethoxy)phenoxy)-2-hydroxypropylamino)ethyl)-3-(3-chlorophenyl)urea], the Kd is 3.72 µM at human beta2-adrenoceptor and 0.0162 µM at beta1-adrenoceptor.
In the case of `CC(C)OCCOc1ccc(OCC(O)CNCCNC(=O)Nc2cccc(Cl)c2)cc1` (stereo not drawn) [46k, 1-(2-(3-(4-(2-(Isopropyloxy)ethoxy)phenoxy)-2-hydroxypropylamino)ethyl)-3-(3-chlorophenyl)urea], the dissociation constant Kd was 5.13 µM at human beta2-adrenoceptor and 0.0214 µM at beta1-adrenoceptor.
The corresponding values for `NC(=O)c1ccc(OCCNCC(O)COc2ccc(OCCOC3CCCC3)cc2)cc1` (stereo not drawn) [67c] are 0.851 µM and 0.00331 µM.
For `O=C(NCCNCC(O)COc1ccc(OCCOC2CCCC2)cc1)Nc1ccc([N+](=O)[O-])cc1` (stereo not drawn) [47w, 1-(2-(3-(4-(2-(Cyclopentyloxy)ethoxy)phenoxy)-2-hydroxypropylamino)ethyl)-3-(4-nitrophenyl)urea], in that order: 1.78 µM and 0.0186 µM.
Turning to `OC(CNCCOc1cccc(Cl)c1)COc1ccc(OCCOC2CCCC2)cc1` (stereo not drawn) (hydrate or solvate) [65a], the melting point amounted to 73.5 °C.
Same read-out and setting: to `OC(CNCCOc1ccc(-c2ccccc2)cc1)COc1ccc(OCCOC2CCCC2)cc1` (stereo not drawn) (hydrate or solvate) [65d] belongs 154 to 155 °C.
As for `Cc1cccc(CC(=O)NCCNCC(O)COc2ccc(OCCOC3CCCC3)cc2)c1` (stereo not drawn) [62q], the Kd at human beta2-adrenoceptor is 0.302 µM; on beta1-adrenoceptor, 0.0269 µM.
Turning to `OC(CNCCOc1ccc(-c2ccccc2)cc1)COc1ccc(OCCOC2CCCC2)cc1` (stereo not drawn) [65d], the dissociation constant (Kd) was 79.4 µM at human beta2-adrenoceptor and 0.398 µM at beta1-adrenoceptor.
With `OC(CNCCOc1ccc(F)cc1)COc1ccc(OCCOC2CCCC2)cc1` (stereo not drawn) [67d], the Kd was 1.02 µM on human beta2-adrenoceptor and 0.00933 µM on beta1-adrenoceptor.
The corresponding values for `NC(=O)c1cccc(OCCNCC(O)COc2ccc(OCCOC3CCCC3)cc2)c1` (stereo not drawn) [67b] are 1 µM and 0.0182 µM.
As for `O=C(Cc1ccccc1O)NCCNCC(O)COc1ccc(OCCOC2CCCC2)cc1` (stereo not drawn) [62u], the Kd is 0.138 µM on human beta2-adrenoceptor and 0.0191 µM on beta1-adrenoceptor.
For `Oc1ccc(OCCCNCC(O)COc2ccc(OCCOC3CCCC3)cc2)cc1` (stereo not drawn) [65f], in that order: 0.794 µM and 0.0347 µM.
As to `O=C(NCCNCC(O)COc1ccc(OCCOC2CC2)cc1)Nc1cccc(Cl)c1` (stereo not drawn) [46o, 1-(3-Chlorophenyl)-3-(2-(3-(4-(2-cyclopropoxyethoxy)phenoxy)-2-hydroxypropylamino)ethyl)urea], the dissociation constant (Kd) was 2.95 µM on human beta2-adrenoceptor and 0.0138 µM on beta1-adrenoceptor.
With `Nc1ccccc1NC(=O)NCCNCC(O)COc1ccc(OCCOC2CCCC2)cc1` (stereo not drawn) [60a], the Kd is 2.19 µM at human beta2-adrenoceptor and 0.0759 µM on beta1-adrenoceptor.
The corresponding values for `O=C(NCCNCC(O)COc1ccc(OCCOC2CCCC2)cc1)Nc1ccc(OCCF)cc1` (stereo not drawn) [47x, 1-(2-(3-(4-(2-(Cyclopentyloxy)ethoxy)phenoxy)-2-hydroxypropylamino)ethyl)-3-(4-(2-fluoroethoxy)phenyl)urea] are 1.82 µM and 0.0178 µM.
On to `COc1ccc(OCCNCC(O)COc2ccc(OCCOC3CCCC3)cc2)cc1` (stereo not drawn) [67e], for which the dissociation constant Kd is 0.794 µM at human beta2-adrenoceptor and 0.00891 µM on beta1-adrenoceptor.
For `NC(=O)c1ccccc1OCCNCC(O)COc1ccc(OCCOC2CCCC2)cc1` (stereo not drawn) [67a], the dissociation constant Kd on human beta2-adrenoceptor was 1.05 µM; at beta1-adrenoceptor, 0.049 µM.
For the compound `Oc1ccc(OCCNCC(O)COc2ccc(OCCOC3CCCC3)cc2)cc1` (stereo not drawn) [65e], the dissociation constant (Kd) on human beta2-adrenoceptor is 0.204 µM; on beta1-adrenoceptor it was 0.00575 µM.
For `CC(C)OCCOc1ccc(OCC(O)CNCCNC(=O)Nc2ccc(O)cc2)cc1` (stereo not drawn) [46l, 1-(2-(3-(4-(2-(Isopropyloxy)ethoxy)phenoxy)-2-hydroxypropylamino)ethyl)-3-(4-hydroxyphenyl)urea], in that order: 15.5 µM and 0.0589 µM.
For `O=C(NCCNC[C@@H](O)COc1ccc(OCCOC2CCCC2)cc1)Nc1cccc(Cl)c1` [(R)-47l, (R)-1-(2-(3-(4-(2-(Cyclopentyloxy)ethoxy)phenoxy)-2-hydroxypropylamino)ethyl)-3-(3-chlorophenyl)urea], the equilibrium dissociation constant (Kd) is 5.89 µM on human beta2-adrenoceptor and 0.186 µM on beta1-adrenoceptor.
`Oc1ccc(OCCCNCC(O)COc2ccc(OCCOC3CCCC3)cc2)cc1` (stereo not drawn) (hydrate or solvate) [65f] showed a melting point of 136 °C.
Consider `CCCOCCOc1ccc(OCC(O)CNCCNC(=O)Nc2ccc(O)cc2)cc1` (stereo not drawn) [46n, 1-(2-(3-(4-(2-(Propyloxy)ethoxy)phenoxy)-2-hydroxypropylamino)ethyl)-3-(4-hydroxyphenyl)urea], for which the equilibrium dissociation constant (Kd) on human beta2-adrenoceptor was 13.5 µM; at beta1-adrenoceptor, 0.0372 µM.
With `OC(CNCCOc1cccc(Cl)c1)COc1ccc(OCCOC2CCCC2)cc1` (stereo not drawn) [65a], the Kd at human beta2-adrenoceptor was 0.776 µM; at beta1-adrenoceptor, 0.0741 µM.
The corresponding values for `O=C(NCCNCC(O)COc1ccc(OCCOC2CCCC2)cc1)Nc1cccc(C(=O)O)c1` (stereo not drawn) [47aa, 3-(3-(2-(3-(4-(2-(Cyclopentyloxy)ethoxy)phenoxy)-2-hydroxypropylamino)ethyl)ureido)benzoic acid hydrochloride] are 43.65 ± 0.4 µM and 0.0776 µM.
Consider `O=C(NCCNC[C@H](O)COc1ccc(OCCOC2CCCC2)cc1)Nc1cccc(Cl)c1` [(S)-47l, (S)-1-(2-(3-(4-(2-(Cyclopentyloxy)ethoxy)phenoxy)-2-hydroxypropylamino)ethyl)-3-(3-chlorophenyl)urea], for which the values for the Kd on human beta2-adrenoceptor and on beta1-adrenoceptor were 1.15 µM and 0.00282 µM, respectively.
For `Nc1ccc(NC(=O)NCCNCC(O)COc2ccc(OCCOC3CCCC3)cc2)cc1` (stereo not drawn) [60c], in that order: 3.63 µM and 0.0295 µM.
As to `O=C(NCCNCC(O)COc1ccc(OCCOCC2CC2)cc1)Nc1ccc(OCc2ccccc2)cc1` (stereo not drawn) (hydrate or solvate) [45a], the melting point was 131 to 133 °C.
Consider `O=C(NCCNCC(O)COc1ccc(OCCOC2CCCC2)cc1)Nc1ccc(O)c(Cl)c1` (stereo not drawn) [54c, 1-(3-Chloro-4-hydroxyphenyl)-3-(2-(3-(4-(2-(cyclopentyloxy)ethoxy)phenoxy)-2-hydroxypropylamino)ethyl)urea], for which the Kd is 1.02 µM at human beta2-adrenoceptor and 0.00724 µM at beta1-adrenoceptor.
Turning to `CC(=O)Oc1ccc(CC(=O)NCCNCC(O)COc2ccc(OCCOC3CCCC3)cc2)cc1` (stereo not drawn) [62w, 4-(2-(2-(3-(4-(2-(Cyclopentyloxy)ethoxy)phenoxy)-2-hydroxypropylamino)ethylamino)-2-oxoethyl)phenyl acetate], the “Beta 2 Log KD” value on human beta2-adrenoceptor is −6.59 ± 0.02. In addition, the “Beta 1 Log KD” value at beta1-adrenoceptor was −8.09 ± 0.03.
As to `O=C(NCCNCC(O)COc1ccc(OCCOC2CCCC2)cc1)Nc1ccc(C(=O)O)cc1` (stereo not drawn) [47bb, 4-(3-(2-(3-(4-(2-(Cyclopentyloxy)ethoxy)phenoxy)-2-hydroxypropylamino)ethyl)ureido)benzoic acid hydrochloride], the values for the equilibrium dissociation constant (Kd) at human beta2-adrenoceptor and on beta1-adrenoceptor were 43.7 ± 0.701 µM and 0.105 µM, respectively.
Turning to `CC(=O)Oc1ccc(C(=O)NCCNCC(O)COc2ccc(OCCOC3CCCC3)cc2)cc1` (stereo not drawn) [62e, 4-(2-(3-(4-(2-(Cyclopentyloxy)ethoxy)phenoxy)-2-hydroxypropylamino)ethylcarbamoyl)phenyl acetate], the “Beta 2 Log KD” value at human beta2-adrenoceptor is recorded as −6.27 ± 0.03. Moreover, on beta1-adrenoceptor, the “Beta 1 Log KD” value was −8.42 ± 0.02.
For the compound `CCOCCOc1ccc(OCC(O)CNCCNC(=O)Nc2ccc(OCc3ccccc3)cc2)cc1` (stereo not drawn) [45d], on beta1-adrenoceptor, the Kd was 0.0912 µM.
Consider `COC(=O)c1cccc(NC(=O)NCCNCC(O)COc2ccc(OCCOC3CCCC3)cc2)c1` (stereo not drawn) [47y, Methyl 3-(3-(2-(3-(4-(2-(cyclopentyloxy)ethoxy)phenoxy)-2-hydroxypropylamino)ethyl)ureido)benzoate], for which the figures for the dissociation constant (Kd) on human beta2-adrenoceptor and at beta1-adrenoceptor were 1.1 µM and 0.0123 µM, respectively.
The corresponding values for `O=C(NCCNCC(O)COc1ccc(OCCOC2CC2)cc1)Nc1ccc(O)cc1` (stereo not drawn) [46p, 1-(2-(3-(4-(2-Cyclopropoxyethoxy)phenoxy)-2-hydroxypropylamino)ethyl)-3-(4-hydroxyphenyl)urea] are 25.7 µM and 0.0631 µM.
